Data taken from US5348946A, “Heteroanthracycline antitumor analogs” (Biochem Immunosystems, Inc., priority 1991, dated 1994).

Assays:
Format in all cases: cell-based
[1] = system: DMS 114; assay: in vitro cytotoxicity evaluation, Small Cell Lung Cancer; conditions: Homo sapiens, 48 h, DMS 114, two days, sulforhodamine B
Procedure: BCH-255 (compound 39) was subjected to an in vitro cytotoxicity evaluation against 59 tumor cell lines to assess its potential as an anticancer drug. These assays were carried out at the Developmental Therapeutics Program, Division of Cancer Treatment, National Cancer Institute (Bethesda, Md., USA). The method consists of incubating varying concentrations of the drug with an inoculum of cells for two days. At the end of the assay, the number of viable cells is estimated with a dye, sulforhodamine B. The protocol is described in M. R. Boyd, "Status of the NCI Preclinical Antitumor Drug Discovery Screen", Principles and Practices of Oncology, 3, pp. 1-12, 1989.
There are three parameters calculated: GI50, the log molar concentration of drug required to inhibit cell growth by 50%; TGI, the log molar concentration of drug required to completely block cell growth; LC50, the log molar concentration of drug required to reduce the original cell number by 50%. It should be noted that the first two parameters (GI50 and TGI) relate to antiproliferation effects while the third one (LC50) indicates true cytotoxicity.

[2] = system: DMS 273; assay: as above; conditions: Homo sapiens, 48 h, DMS 273, two days, sulforhodamine B
Procedure: (§1) These assays were carried out at the Developmental Therapeutics Program, Division of Cancer Treatment, National Cancer Institute (Bethesda, Md., USA). The method consists of incubating varying concentrations of the drug with an inoculum of cells for two days.
(§2) It should be noted that the first two parameters (GI50 and TGI) relate to antiproliferation effects while the third one (LC50) indicates true cytotoxicity.

[3] = system: SK-MEL-28; assay: in vitro cytotoxicity evaluation, Melanoma; conditions: Homo sapiens, 48 h, SK-MEL-28, two days, sulforhodamine B
Procedure: as §1, §2

[4] = system: M19-MEL; assay: in vitro cytotoxicity evaluation, Melanoma; conditions: Homo sapiens, 48 h, two days, sulforhodamine B
Procedure: as §1, §2

[5] = system: UACC-257; assay: in vitro cytotoxicity evaluation, Melanoma; conditions: Homo sapiens, 48 h, UACC-257, two days, sulforhodamine B
Procedure: as §1, §2

[6] = system: SK-MEL-5; assay: in vitro cytotoxicity evaluation, Melanoma; conditions: Homo sapiens, 48 h, SK-MEL-5, two days, sulforhodamine B
Procedure: as §1, §2

[7] = system: MALME-3M; assay: in vitro cytotoxicity evaluation, Melanoma; conditions: Homo sapiens, 48 h, two days, sulforhodamine B
Procedure: as §1, §2

[8] = system: UACC-62; assay: in vitro cytotoxicity evaluation, Melanoma; conditions: Homo sapiens, 48 h, UACC-62, two days, sulforhodamine B
Procedure: as §1, §2

[9] = system: LOX IMVI; assay: in vitro cytotoxicity evaluation, Melanoma; conditions: Homo sapiens, 48 h, two days, sulforhodamine B
Procedure: as §1, §2

[10] = system: M14; assay: in vitro cytotoxicity evaluation, Melanoma; conditions: Homo sapiens, 48 h, M14, two days, sulforhodamine B
Procedure: as §1, §2

[11] = system: SK-MEL-2; assay: in vitro cytotoxicity evaluation, Melanoma; conditions: Homo sapiens, 48 h, SK-MEL-2, two days, sulforhodamine B
Procedure: as §1, §2

[12] = system: HI-60TB; assay: in vitro cytotoxicity evaluation, Leukemia; conditions: Homo sapiens, 48 h, two days, sulforhodamine B
[13] = system: IGROV-1; assay: in vitro cytotoxicity evaluation, Ovarian Cancer; conditions: Homo sapiens, 48 h, IGROV-1, two days, sulforhodamine B
Procedure: as §1, §2

[14] = system: OVCAR-8; assay: in vitro cytotoxicity evaluation, Ovarian Cancer; conditions: Homo sapiens, 48 h, OVCAR-8, two days, sulforhodamine B
Procedure: as §1, §2

[15] = system: OVCAR-4; assay: in vitro cytotoxicity evaluation, Ovarian Cancer; conditions: Homo sapiens, 48 h, OVCAR-4, two days, sulforhodamine B
Procedure: as §1, §2

[16] = system: OVCAR-5; assay: in vitro cytotoxicity evaluation, Ovarian Cancer; conditions: Homo sapiens, 48 h, OVCAR-5, two days, sulforhodamine B
Procedure: as §1, §2

[17] = system: NCI-H522; assay: in vitro cytotoxicity evaluation, Non-Small Cell Lung Cancer; conditions: Homo sapiens, 48 h, NCI-H522, two days, sulforhodamine B
Procedure: as §1, §2

[18] = system: NCI-H23; assay: as above; conditions: Homo sapiens, 48 h, NCI-H23, two days, sulforhodamine B
Procedure: as §1, §2

[19] = system: HOP-18; assay: as above; conditions: Homo sapiens, 48 h, HOP-18, two days, sulforhodamine B
Procedure: as §1, §2

[20] = read-out: LOG10 G150 (GI50) (converted)
[21] = read-out: Log10 TGI (converted)
[22] = read-out: Log10 LC50 (converted)

COc1c2c(c(OC)c3c(=O)c4ccccc4sc13)CS(=O)(=O)[C@@H]2O[C@H]1C[C@H](N)[C@H](O)[C@H](C)O1 [BCH-255, (1S ) 1-daunosamine-4-11-dimethoxy-5-oxo-5-H-1,3-dihydrothioxantheno [2,3-c] thiophene-2,2-dioxide]
GI50 [1, 20]: 17.8 µM | IC (total growth inhibition (TGI)) [1, 21]: 37.2 µM | GI50 [2, 20]: 18.2 µM | CC50 [2, 22]: 70.8 µM | IC (total growth inhibition (TGI)) [2, 21]: 35.5 µM | GI50 [3, 20]: 18.2 µM | CC50 [3, 22]: 67.6 µM | IC (total growth inhibition (TGI)) [3, 21]: 34.7 µM | GI50 [4, 20]: 18.2 µM | CC50 [4, 22]: 67.6 µM | IC (total growth inhibition (TGI)) [4, 21]: 34.7 µM | GI50 [5, 20]: 22.4 µM | CC50 [5, 22]: 85.1 µM | IC (total growth inhibition (TGI)) ([5]; read-out: Log10 TGI): 43.7 µM | GI50 [6, 20]: 18.2 µM | CC50 [6, 22]: 57.5 µM | IC (total growth inhibition (TGI)) [6, 21]: 32.4 µM | GI50 [7, 20]: 20 µM | CC50 [7, 22]: 67.6 µM | IC (total growth inhibition (TGI)) [7, 21]: 36.3 µM | GI50 [8, 20]: 19.1 µM | CC50 [8, 22]: 74.1 µM | IC (total growth inhibition (TGI)) [8, 21]: 37.2 µM | GI50 [9, 20]: 17.8 µM | CC50 [9, 22]: 81.3 µM | IC (total growth inhibition (TGI)) [9, 21]: 38 µM | GI50 [10, 20]: 18.2 µM | CC50 [10, 22]: 60.3 µM | IC (total growth inhibition (TGI)) [10, 21]: 33.1 µM | GI50 [11, 20]: 19.1 µM | CC50 [11, 22]: 70.8 µM | IC (total growth inhibition (TGI)) [11, 21]: 36.3 µM | GI50 [12, 20]: 15.8 µM | CC50 [12, 22]: 69.2 µM | IC (total growth inhibition (TGI)) [12, 21]: 33.1 µM | GI50 [13, 20]: 16.6 µM | CC50 [13, 22]: 87.1 µM | IC (total growth inhibition (TGI)) [13, 21]: 38 µM | GI50 [14, 20]: 19.5 µM | CC50 [14, 22]: 74.1 µM | IC (total growth inhibition (TGI)) [14, 21]: 38 µM | GI50 [15, 20]: 18.2 µM | CC50 [15, 22]: 64.6 µM | IC (total growth inhibition (TGI)) [15, 21]: 34.7 µM | GI50 [16, 20]: 39.8 µM | CC50 [16, 22]: > 100 µM | IC (total growth inhibition (TGI)) ([16]; read-out: Log10 TGI): > 100 µM | GI50 [17, 20]: 18.6 µM | CC50 [17, 22]: 77.6 µM | IC (total growth inhibition (TGI)) [17, 21]: 38 µM | GI50 [18, 20]: 50.1 µM | CC50 [18, 22]: > 100 µM | IC (total growth inhibition (TGI)) ([18]; read-out: Log10 TGI): > 100 µM | GI50 ([19]; read-out: LOG10 G150 (GI50)): > 100 µM | CC50 [19, 22]: > 100 µM | IC (total growth inhibition (TGI)) ([19]; read-out: Log10 TGI): > 100 µM
